Assay results: ChEMBL document CHEMBL1201862, “PubChem BioAssay data set” (2004)
The source made the active and inactive calls.

Legend:
[1] = target: T1, RNA-binding protein pos-1 (Caenorhabditis elegans, UniProt G5EF15); assay: disruptors of C. elegans POS-1 RNA interaction – biochemical, fluorescence polarization, dose response (AID 1964);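 further: purified POS-1 fused to maltose binding protein made in E. coli; potency of compounds blocking POS-1 binding to fluorescent RNA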
T1 sequence (G5EF15 whole entry): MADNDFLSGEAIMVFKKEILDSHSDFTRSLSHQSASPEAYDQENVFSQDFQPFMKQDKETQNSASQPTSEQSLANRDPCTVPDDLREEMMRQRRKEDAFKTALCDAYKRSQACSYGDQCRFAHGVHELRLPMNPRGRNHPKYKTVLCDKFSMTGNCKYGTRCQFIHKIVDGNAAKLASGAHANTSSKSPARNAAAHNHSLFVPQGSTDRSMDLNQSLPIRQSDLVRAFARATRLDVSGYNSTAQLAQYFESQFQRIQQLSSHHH

HeLa [2] = assay: ATP-based viability loss in HeLa cells – cell-based, CellTiter-Glo luminescence, cherry-pick samples, cytotoxicity control for MITF activator project, dose response (AID 540259); type: functional; details: Homo sapiens
[3] = Trypanosoma cruzi growth suppression in host cells – NIH3T3 host cells, beta-gal luminescence, confirmation (AID 2044); type: functional, cell-based;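 further: intracellular parasites grown in NIH/3T3 mouse fibroblasts as host cells; luminescent beta-galactosidase reporter signal from transgenic T. cruzi replicating inside host cells; inhibitors lower the luminescence signal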
[4] = target: T2, Zinc finger protein mex-5 (Caenorhabditis elegans, UniProt Q9XUB2); assay: potency of MEX-5 RNA-binding blockers – biochemical, C. elegans, fluorescence polarization, dose response (AID 1960)
T2 sequence (Q9XUB2 whole entry): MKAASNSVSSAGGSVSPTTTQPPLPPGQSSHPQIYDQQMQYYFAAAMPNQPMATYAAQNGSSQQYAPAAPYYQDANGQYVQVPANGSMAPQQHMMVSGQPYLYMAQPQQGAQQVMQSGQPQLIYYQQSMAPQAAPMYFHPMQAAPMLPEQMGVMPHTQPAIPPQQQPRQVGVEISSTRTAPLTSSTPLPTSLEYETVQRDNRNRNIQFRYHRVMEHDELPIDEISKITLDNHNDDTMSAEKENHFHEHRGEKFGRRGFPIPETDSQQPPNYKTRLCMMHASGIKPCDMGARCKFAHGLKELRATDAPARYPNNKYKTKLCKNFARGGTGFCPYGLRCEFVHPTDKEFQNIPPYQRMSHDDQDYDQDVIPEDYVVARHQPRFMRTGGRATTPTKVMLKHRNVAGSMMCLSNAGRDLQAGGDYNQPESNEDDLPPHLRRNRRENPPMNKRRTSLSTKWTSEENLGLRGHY

HeLa [5] = assay: viability loss in HeLa cells – cell-based, 24 h, cherry-picked samples, cytotoxicity control, dose response (AID 504726); type: functional; details: Homo sapiens;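 further: potency for cytotoxicity as loss of luminescence signal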
[6] = NIH3T3 cell viability loss – ATP luminescence, mouse fibroblasts, counter-screen, dose response (AID 2010); type: functional, cell-based;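 further: cells exposed to compound for about 90 hours before reading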
[7] = CCR5-tropic HIV-1 fusion blockers – cell-based, CCR5-tropic Env, dose response (AID 2279); type: functional
Genome polyprotein = Genome polyprotein (dengue virus type 2, UniProt P29990); assay: flavivirus cap methylation enzyme inhibition – biochemical, confirmation dose response, primary screen (AID 588689); type: functional
Sequence of Genome polyprotein (P29990 2492-3391 limits assumed): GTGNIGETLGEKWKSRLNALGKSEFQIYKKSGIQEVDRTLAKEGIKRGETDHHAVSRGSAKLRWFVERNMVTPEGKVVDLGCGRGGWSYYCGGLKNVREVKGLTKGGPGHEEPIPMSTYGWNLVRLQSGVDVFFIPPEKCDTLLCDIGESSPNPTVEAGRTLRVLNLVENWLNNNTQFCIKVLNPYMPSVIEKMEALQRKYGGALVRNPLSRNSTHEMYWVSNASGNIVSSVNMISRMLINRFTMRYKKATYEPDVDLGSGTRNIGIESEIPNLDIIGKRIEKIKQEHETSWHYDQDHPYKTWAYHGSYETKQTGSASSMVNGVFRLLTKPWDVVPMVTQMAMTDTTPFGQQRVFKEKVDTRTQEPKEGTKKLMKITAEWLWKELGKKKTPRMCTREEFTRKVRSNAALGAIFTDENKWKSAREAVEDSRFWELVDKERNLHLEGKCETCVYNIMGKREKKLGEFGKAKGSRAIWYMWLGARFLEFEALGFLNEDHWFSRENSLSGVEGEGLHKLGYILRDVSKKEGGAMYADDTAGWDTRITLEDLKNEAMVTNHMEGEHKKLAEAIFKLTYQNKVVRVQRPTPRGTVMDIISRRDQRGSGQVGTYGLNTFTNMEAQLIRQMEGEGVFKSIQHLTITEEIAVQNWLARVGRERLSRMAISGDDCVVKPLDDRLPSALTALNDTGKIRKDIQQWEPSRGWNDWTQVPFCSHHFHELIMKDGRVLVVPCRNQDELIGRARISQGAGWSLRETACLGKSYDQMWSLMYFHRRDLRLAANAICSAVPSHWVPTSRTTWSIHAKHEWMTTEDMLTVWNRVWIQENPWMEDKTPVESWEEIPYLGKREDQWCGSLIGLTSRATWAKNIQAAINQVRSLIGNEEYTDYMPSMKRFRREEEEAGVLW

[8] = target: FAD-linked sulfhydryl oxidase ALR (Homo sapiens, UniProt P55789); assay: ALR-catalysed DTT oxidation blockers – biochemical, H2O2 detection, luminescence, cherry-pick, dose response (AID 493248)
Sequence of FAD-linked sulfhydryl oxidase ALR (P55789 whole entry): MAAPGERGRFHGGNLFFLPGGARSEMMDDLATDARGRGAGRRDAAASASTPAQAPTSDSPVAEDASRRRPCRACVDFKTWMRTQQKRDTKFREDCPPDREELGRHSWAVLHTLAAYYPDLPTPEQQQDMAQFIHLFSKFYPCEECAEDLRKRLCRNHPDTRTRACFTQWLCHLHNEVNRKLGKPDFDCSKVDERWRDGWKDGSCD

[9] = A Cell Based Secondary Assay To Explore Cytotoxicity of Compounds that Sensitize Mycobacterium Tuberculosis to Beta-Lactam Antibiotics.; type: functional
Vero [10] = assay: cells; type: functional, cell-based; details: Chlorocebus sabaeus
cells [11] = assay: cells
[12] = viability of uninfected HEp-2 cells – cell-based, HTS, cytotoxicity control for RSV inhibitor project, dose response (AID 2410); type: functional; details: human respiratory syncytial virus
Vero [13] = assay: cells; type: functional; details: Chlorocebus sabaeus
[14] = target: G2/mitotic-specific cyclin-B1 (Homo sapiens, UniProt P14635); assay: HeLa cell cycle G2/M accumulation – FACS, mechanism study for Wee1 degradation inhibitor project, late-stage follow-up, panel member Cyclin B Degradation (AID 2088)
Sequence of G2/mitotic-specific cyclin-B1 (P14635 whole entry): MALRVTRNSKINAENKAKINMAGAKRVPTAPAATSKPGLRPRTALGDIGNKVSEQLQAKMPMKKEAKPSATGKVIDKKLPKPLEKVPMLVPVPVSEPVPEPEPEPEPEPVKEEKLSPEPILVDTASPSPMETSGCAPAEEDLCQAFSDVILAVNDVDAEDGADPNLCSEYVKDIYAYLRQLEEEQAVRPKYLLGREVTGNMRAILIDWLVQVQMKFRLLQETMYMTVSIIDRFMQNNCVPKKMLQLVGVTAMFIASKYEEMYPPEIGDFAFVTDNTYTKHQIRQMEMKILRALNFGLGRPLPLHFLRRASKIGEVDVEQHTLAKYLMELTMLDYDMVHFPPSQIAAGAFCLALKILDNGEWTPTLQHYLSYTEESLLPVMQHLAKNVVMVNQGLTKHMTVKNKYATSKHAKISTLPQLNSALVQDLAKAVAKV

Wee1-like protein kinase = Wee1-like protein kinase (Homo sapiens, UniProt P30291); assay: HeLa cell cycle G2/M accumulation – FACS, mechanism study for Wee1 degradation inhibitor project, late-stage follow-up, panel member Wee1 Degradation (AID 2088)
Sequence of Wee1-like protein kinase (P30291 whole entry): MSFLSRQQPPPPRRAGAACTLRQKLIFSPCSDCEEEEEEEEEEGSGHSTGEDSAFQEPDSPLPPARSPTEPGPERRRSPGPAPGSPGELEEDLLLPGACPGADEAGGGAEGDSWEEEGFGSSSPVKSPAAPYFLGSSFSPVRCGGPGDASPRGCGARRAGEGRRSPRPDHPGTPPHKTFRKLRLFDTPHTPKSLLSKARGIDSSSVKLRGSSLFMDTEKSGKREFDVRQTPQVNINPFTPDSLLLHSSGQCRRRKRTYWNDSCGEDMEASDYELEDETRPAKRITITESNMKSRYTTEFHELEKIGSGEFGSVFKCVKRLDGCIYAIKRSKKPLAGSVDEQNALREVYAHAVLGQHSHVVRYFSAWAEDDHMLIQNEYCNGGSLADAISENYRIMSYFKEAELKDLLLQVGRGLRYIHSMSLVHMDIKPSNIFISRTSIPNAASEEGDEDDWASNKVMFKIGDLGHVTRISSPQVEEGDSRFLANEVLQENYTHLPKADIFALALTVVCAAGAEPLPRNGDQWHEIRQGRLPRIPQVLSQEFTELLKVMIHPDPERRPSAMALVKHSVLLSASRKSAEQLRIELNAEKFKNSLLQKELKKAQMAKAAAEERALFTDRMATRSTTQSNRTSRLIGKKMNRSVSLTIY

[15] = M. tuberculosis H37Rv growth inhibitors, H37Rv strain (AID 1626); type: functional
[16] = Luminescence Cell-Based Dose Confirmation HTS to Identify Inhibitors of Platelet Dense Granule Release. [Related pubchem assays: 1663 (Primary HTS), 1678 (Summary of Project)]; type: functional
[17] = target: Luciferin 4-monooxygenase (Photinus pyralis, UniProt P08659); assay: inhibition of purified Photinus pyralis luciferase – biochemical, luminescence, dose response (AID 1891)
Sequence of Luciferin 4-monooxygenase (P08659 whole entry): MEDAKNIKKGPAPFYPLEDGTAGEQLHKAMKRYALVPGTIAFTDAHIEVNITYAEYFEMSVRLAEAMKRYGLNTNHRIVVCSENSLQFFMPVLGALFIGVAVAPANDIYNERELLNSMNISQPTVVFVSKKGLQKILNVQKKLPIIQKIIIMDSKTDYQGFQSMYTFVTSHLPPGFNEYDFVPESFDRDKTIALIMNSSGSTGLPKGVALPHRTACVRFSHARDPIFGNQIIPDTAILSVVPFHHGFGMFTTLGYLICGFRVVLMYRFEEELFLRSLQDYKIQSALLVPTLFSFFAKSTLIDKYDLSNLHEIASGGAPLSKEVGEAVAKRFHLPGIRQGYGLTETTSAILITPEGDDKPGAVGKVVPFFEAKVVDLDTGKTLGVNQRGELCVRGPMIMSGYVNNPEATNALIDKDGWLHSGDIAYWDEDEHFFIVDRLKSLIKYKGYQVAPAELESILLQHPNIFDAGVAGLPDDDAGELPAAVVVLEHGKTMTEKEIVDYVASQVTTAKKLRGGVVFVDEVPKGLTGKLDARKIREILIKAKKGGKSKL

[18] = target: T3, Rac GTPase-activating protein 1 (Homo sapiens, UniProt Q9H0H5); assay: blockers of MgcRacGAP-driven Rac1 GTP hydrolysis – biochemical, ADP Hunter fluorescence, primary and confirmatory, confirmation (AID 624330); type: functional
T3 sequence (Q9H0H5 whole entry): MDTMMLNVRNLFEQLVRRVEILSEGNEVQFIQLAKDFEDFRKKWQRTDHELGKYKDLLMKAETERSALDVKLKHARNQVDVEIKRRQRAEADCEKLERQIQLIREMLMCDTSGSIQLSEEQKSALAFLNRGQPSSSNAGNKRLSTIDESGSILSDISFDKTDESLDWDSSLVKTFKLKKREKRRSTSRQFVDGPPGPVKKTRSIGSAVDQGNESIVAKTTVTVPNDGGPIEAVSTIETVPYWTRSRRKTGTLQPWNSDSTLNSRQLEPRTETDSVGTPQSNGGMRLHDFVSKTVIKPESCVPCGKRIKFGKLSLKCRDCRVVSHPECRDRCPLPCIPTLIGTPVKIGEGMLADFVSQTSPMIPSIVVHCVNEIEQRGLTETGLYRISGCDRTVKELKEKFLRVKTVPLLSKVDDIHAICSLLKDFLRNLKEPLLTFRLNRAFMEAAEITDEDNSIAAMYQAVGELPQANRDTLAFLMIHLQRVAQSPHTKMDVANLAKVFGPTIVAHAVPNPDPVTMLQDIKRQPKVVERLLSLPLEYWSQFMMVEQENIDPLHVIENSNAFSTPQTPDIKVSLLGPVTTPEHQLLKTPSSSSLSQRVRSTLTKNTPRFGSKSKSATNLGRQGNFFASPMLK

[19] = target: DNA dC->dU-editing enzyme APOBEC-3G (Homo sapiens, UniProt Q9HC16); type: functional;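 further: Dose-response counterscreen measuring inhibition of APOBEC3G DNA deaminase activity, run while confirming APOBEC3A inhibitors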
Sequence of DNA dC->dU-editing enzyme APOBEC-3G (Q9HC16 whole entry): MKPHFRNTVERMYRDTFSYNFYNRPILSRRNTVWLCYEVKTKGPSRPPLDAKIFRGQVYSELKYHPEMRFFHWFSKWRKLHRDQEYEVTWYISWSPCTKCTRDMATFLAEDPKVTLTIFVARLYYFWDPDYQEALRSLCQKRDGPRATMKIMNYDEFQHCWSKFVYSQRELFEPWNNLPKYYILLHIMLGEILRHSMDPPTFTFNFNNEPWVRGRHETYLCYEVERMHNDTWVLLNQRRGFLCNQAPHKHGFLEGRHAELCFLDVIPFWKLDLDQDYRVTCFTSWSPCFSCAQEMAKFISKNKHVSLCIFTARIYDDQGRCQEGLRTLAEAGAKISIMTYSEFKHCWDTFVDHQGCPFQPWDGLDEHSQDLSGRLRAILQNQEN

[20] = target: DNA dC->dU-editing enzyme APOBEC-3A (Homo sapiens, UniProt P31941); assay: Dose Response confirmation of small molecule APOBEC3A DNA Deaminase Inhibitors via a fluorescence-based single-stranded DNA deaminase assay. [Related pubchem assays (depositor defined):AID493011, AID493024]; type: functional
Sequence of DNA dC->dU-editing enzyme APOBEC-3A (P31941 whole entry): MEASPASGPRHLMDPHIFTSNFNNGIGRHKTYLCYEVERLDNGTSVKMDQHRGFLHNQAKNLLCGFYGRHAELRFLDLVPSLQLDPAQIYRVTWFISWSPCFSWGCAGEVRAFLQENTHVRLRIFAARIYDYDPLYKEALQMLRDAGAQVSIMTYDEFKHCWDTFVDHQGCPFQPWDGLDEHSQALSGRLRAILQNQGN

[21] = target: Eukaryotic translation initiation factor 4H (Homo sapiens, UniProt Q15056); assay: eIF4H binding inhibition – biochemical, uHTS, fluorescence polarization, translation initiation inhibitor project, primary screen (AID 2012)
[22] = target: Polyadenylate-binding protein 1 (Homo sapiens, UniProt P11940); assay: blockers of PABP interaction with poly(A) – biochemical, fluorescence polarization, […] (AID 2014)
cells [23] = type: functional, cell-based
cells [24] = type: functional, cell-based; remark: listed apart in the source
[25] = target: Cyclin-dependent kinase 5/CDK5 activator 1 (Homo sapiens, UniProt Q00535); assay: blockade of human CDK5 activity – biochemical, cherry-picked samples, set 2, dose response (AID 504545)
Sequence of Cyclin-dependent kinase 5/CDK5 activator 1 (Q00535 whole entry): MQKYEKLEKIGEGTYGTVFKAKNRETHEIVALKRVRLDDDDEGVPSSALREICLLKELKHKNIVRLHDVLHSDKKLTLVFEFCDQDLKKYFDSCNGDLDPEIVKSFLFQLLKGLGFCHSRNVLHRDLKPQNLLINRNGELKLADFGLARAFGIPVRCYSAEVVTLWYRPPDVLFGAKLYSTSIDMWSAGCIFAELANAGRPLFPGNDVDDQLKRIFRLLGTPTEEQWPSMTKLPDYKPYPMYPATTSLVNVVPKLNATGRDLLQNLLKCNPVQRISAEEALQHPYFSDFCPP
Sequence of Cyclin-dependent kinase 5/CDK5 activator 1 (Q15078 whole entry, further chain): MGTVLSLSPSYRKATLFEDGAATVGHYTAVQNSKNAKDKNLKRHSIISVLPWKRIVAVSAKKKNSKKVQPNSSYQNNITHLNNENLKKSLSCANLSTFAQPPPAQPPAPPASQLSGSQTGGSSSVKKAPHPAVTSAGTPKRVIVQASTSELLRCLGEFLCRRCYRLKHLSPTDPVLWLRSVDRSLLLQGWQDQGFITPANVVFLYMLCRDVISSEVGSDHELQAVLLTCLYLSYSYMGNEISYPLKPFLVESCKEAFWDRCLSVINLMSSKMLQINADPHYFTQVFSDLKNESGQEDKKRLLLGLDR

Bcl-2-like protein 10 = Bcl-2-like protein 10 (Homo sapiens, UniProt Q9HD36); assay: Bcl-B/TR3 peptide binding disruption – biochemical, fluorescence polarization, FITC-TR3 peptide, selectivity assay for Bfl-1 inhibitor project, primary screen (AID 748);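 further: fluorescence polarization from a fluorescein-labelled TR3 peptide binding purified Bcl-B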
Sequence of Bcl-2-like protein 10 (Q9HD36 whole entry): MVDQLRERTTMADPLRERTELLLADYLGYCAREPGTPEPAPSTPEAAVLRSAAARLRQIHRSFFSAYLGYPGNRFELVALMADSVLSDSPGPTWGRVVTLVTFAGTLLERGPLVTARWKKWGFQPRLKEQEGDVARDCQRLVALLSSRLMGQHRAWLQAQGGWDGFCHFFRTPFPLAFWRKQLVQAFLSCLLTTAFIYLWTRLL

Cytochrome P450 2D6 = Cytochrome P450 2D6 (Homo sapiens, UniProt P10635);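 further: CYP2D6 member of a cytochrome P450 panel assay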
Sequence of Cytochrome P450 2D6 (P10635 whole entry): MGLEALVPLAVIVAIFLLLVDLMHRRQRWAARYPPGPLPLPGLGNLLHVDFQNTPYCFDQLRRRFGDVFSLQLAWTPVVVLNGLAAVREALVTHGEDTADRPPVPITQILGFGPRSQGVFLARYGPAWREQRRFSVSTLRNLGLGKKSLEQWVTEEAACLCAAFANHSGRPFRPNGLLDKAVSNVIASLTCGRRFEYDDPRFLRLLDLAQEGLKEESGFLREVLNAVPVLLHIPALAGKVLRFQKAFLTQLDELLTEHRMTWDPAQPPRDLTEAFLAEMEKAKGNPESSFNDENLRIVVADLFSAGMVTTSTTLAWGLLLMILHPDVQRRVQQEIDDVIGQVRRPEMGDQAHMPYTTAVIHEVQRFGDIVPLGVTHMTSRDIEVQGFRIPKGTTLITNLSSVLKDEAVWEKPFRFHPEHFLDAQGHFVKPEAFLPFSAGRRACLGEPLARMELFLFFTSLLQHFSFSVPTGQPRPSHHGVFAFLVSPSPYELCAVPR

Hexokinase HKDC1 = target: T4, Hexokinase HKDC1 (Homo sapiens, UniProt Q2TB90); assay: inhibition of HKDC1 glucose phosphorylation – biochemical, W721R variant, dose response (AID 504729); type: functional
T4 sequence (Q2TB90 whole entry): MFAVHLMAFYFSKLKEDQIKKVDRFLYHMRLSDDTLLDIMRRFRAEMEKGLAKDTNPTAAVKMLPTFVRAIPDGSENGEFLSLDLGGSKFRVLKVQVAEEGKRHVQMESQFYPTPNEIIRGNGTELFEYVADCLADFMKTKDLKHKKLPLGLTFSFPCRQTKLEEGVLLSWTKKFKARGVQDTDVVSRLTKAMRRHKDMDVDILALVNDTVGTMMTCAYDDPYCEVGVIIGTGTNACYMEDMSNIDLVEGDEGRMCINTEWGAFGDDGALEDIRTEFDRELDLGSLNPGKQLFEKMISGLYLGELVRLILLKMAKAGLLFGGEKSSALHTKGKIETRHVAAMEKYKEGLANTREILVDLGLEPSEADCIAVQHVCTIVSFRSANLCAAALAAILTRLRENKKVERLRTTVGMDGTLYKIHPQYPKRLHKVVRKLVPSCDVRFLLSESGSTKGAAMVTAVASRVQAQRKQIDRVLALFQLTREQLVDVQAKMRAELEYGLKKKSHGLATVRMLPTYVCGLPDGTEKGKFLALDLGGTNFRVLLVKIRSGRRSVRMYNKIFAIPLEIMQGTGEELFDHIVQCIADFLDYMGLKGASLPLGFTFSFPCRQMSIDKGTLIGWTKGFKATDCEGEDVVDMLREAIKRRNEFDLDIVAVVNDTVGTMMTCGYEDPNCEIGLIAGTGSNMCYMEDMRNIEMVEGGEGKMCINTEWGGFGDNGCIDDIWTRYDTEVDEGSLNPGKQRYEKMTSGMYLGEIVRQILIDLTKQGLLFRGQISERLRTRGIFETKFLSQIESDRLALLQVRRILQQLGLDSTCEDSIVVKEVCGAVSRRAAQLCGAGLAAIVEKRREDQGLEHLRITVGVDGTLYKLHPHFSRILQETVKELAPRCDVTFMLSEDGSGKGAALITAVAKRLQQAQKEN

[26] = target: Induced myeloid leukemia cell differentiation protein Mcl-1 (Homo sapiens, UniProt Q07820); type: functional
Cytochrome P450 3A4 = Cytochrome P450 3A4 (Homo sapiens, UniProt P08684);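 further: CYP3A4 tested as one member of a cytochrome P450 panel screen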
Cytochrome P450 2C19 = Cytochrome P450 2C19 (Homo sapiens, UniProt P33261); assay: Cytochrome panel assay with activity outcomes. Panel member name: p450-cyp2c19 Compounds with AC50 equal or less than 10 uM are considered active; type: functional; details: read-out: AC50
HeLa [27] = assay: Cytotoxicity counterscreen assay for transcriptional activators of heat shock protein 70 (Hsp70). [Related pubchem assays: 1203, 1252 ]; type: functional; details: Homo sapiens

## CN1CCc2c(sc(NC(=O)c3ccc4ccccc4c3)c2C(N)=O)C1
[1]
  EC50: > 300 µM (not active)
HeLa [2]
  AC50: 24.5 µM (active)
[3]
  EC50: 3.25 µM (active)
[4]
  EC50: > 300 µM (inconclusive)
HeLa [5]
  AC50: 35.3 µM (active)
[6]
  EC50: 9.24 µM (active)

## COC(=O)c1sc(-c2ccc(C(C)(C)C)cc2)cc1NC(=O)c1ccccc1C(=O)O
[7]
  IC50: 49.9 µM (active)
Genome polyprotein
  IC50: 35.9 µM (active)
[8]
  AC50: 0.087 µM (active)

## CN(C)c1ccc(/C=N/NC(=O)c2cc(-c3ccc4c(c3)OCO4)[nH]n2)cc1
[9]
  CC50: 30.2 µM (active)

## COCCNC(=O)c1cc(-c2ccc(-c3ccccc3)cc2)nc2ccccc12
Vero [10]
  IC50: 7.44 µM (active)
Cells [11]
  IC50: 4.81 µM (active)
[12]
  CC50: 15.2 µM (active)
Vero [13]
  CC50: 19.2 µM (active)

## Cn1c(=O)cc(OCCCC(=O)Nc2cccc(Cl)c2)c2ccccc21
[14]
  EC50: > 49.7 µM (inactive)
Wee1-like protein kinase
  EC50: > 49.7 µM (inactive)

## COc1cc(OC)c2cc[nH]c2c1
[15]
  IC50: > 100 µM (active)
[16]
  EC50: > 112 µM (not active)
[17]
  EC50: > 112 µM (not active)
[18]
  IC50: 108 µM (active)

## C[N+]12CCCCC1[C@@H](CO)CCC2 (stereo partly specified)
[19]
  IC50: 4.19 µM (active)
[20]
  IC50: 2.79 µM (active)
[21]
  IC50: > 100 µM (inactive)
[22]
  IC50: 5.51 µM (active)

## CCC(=O)NC(=S)Nc1ccc(NC(=O)c2cccc([N+](=O)[O-])c2C)cc1
Cells [23]
  EC50: > 350 µM (not active)
[9]
  CC50: > 40 µM (active)
Cells [24]
  EC50: > 350 µM (not active)

## COc1cccc(C(=O)ON=C(N)c2ccccn2)c1
[25]
  AC50: 12.9 µM (active)
[17]
  EC50: 2.07 µM (active)

## CC(C)n1cnc2c(Nc3ccc(C(=O)O)cc3)nc(Cl)nc21
[25]
  AC50: 22.2 µM (active)

## CN(CC(=O)Nc1c(Cl)cccc1Cl)C(=O)CCCN1C(=O)c2ccccc2C1=O
Bcl-2-like protein 10
  IC50: > 100 µM (inactive)

## O=C(c1cnn2c(-c3ccccc3)cc(-c3ccccc3)nc12)N1CCN(Cc2ccccc2)CC1
[12]
  CC50: 15.5 µM (active)
HeLa [5]
  AC50: 62.6 µM (active)

## Cn1c(=O)n(C)c2cc(S(=O)(=O)Nc3ccccc3O)ccc21
Bcl-2-like protein 10
  IC50: > 100 µM (inactive)

## CC1=NOC(=O)/C1=C\c1ccc(-c2ccc(Cl)cc2Cl)o1
Cytochrome P450 2D6
  AC50: 14.1 µM (inconclusive)
Hexokinase HKDC1
  IC50: 20.6 µM (inactive)
[26]
  IC50: 1.7 µM (active)
Cytochrome P450 3A4
  AC50: 17.8 µM (inconclusive)
Vero [10]
  IC50: > 25 µM (active)
Cytochrome P450 2C19
  AC50: 7.94 µM (inconclusive)
HeLa [27]
  CC50: > 3.67 µM (not active)
Vero [13]
  CC50: > 25 µM (active)

## c1ccc(-c2cc3c(ccc4nonc43)[nH]2)cc1
[14]
  EC50: > 49.7 µM (inactive)
Wee1-like protein kinase
  EC50: > 49.7 µM (inactive)

## CCC(C)NC(=O)c1cc2cc3ccc(OC)cc3nc2s1 (stereo unspecified)
Cells [11]
  IC50: 10.8 µM (active)
[12]
  CC50: 44.8 µM (active)
